Source: PubChem BioAssay (NCI)
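GI50 = concentration required for 50% inhibition of growth. Definition used: TGI = concentration required for complete inhibition of growth.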

Experiments:
Test in all cases: DTP human tumour cell line panel, 384-well format
[1] = system: 786-0 renal
[2] = system: A498 renal
[3] = system: A549 NSCLC
[4] = system: ACHN renal
[5] = system: BT-549 breast
[6] = system: CAKI-1 renal
[7] = system: COLO 205 colon
[8] = system: DU-145 prostate
[9] = system: HCC-2998 colon
[10] = system: HCT-116 colon
[11] = system: HCT-15 colon
[12] = system: HL-60(TB) leukemia
[13] = system: HOP-62 NSCLC
[14] = system: HOP-92 NSCLC
[15] = system: HT29 colon
[16] = system: IGROV1 ovarian
[17] = system: KM12 colon
[18] = system: LOX IMVI melanoma
[19] = system: M14 melanoma
[20] = system: MALME-3M melanoma
[21] = system: MCF7 breast
[22] = system: MDA-MB-231 breast
[23] = system: MDA-MB-435 melanoma
[24] = system: MDA-MB-468 breast
[25] = system: NCI-H226 lung
[26] = system: NCI-H23 lung
[27] = system: NCI-H322M lung
[28] = system: NCI-H460 NSCLC
[29] = system: NCI-H522 lung
[30] = system: NCI/ADR-RES ovarian
[31] = system: OVCAR-3 ovarian
[32] = system: OVCAR-4 ovarian
[33] = system: OVCAR-5 ovarian
[34] = system: OVCAR-8 ovarian
[35] = system: PC-3 prostate
[36] = system: RPMI-8226 leukemia
[37] = system: RXF 393 renal
[38] = system: SF-268 CNS
[39] = system: SF-295 CNS
[40] = system: SF-539 CNS
[41] = system: SK-MEL-2 melanoma
[42] = system: SK-MEL-28 melanoma
[43] = system: SK-MEL-5 melanoma
[44] = system: SK-OV-3 ovarian
[45] = system: SN12C renal
[46] = system: SNB-19 CNS
[47] = system: SR leukemia
[48] = system: T-47D breast
[49] = system: TK-10 renal
[50] = system: U251 glioblastoma
[51] = system: UACC-257 melanoma
[52] = system: UACC-62 melanoma
[53] = system: UO-31 renal

Cc1cccc2c1NC(=O)[C@@H](NC(=O)[C@H](CCC(F)(F)F)[C@H](CCC(F)(F)F)C(N)=O)N=C2c1cccc(F)c1
GI50 [1]: 22.2 µM | TGI [1]: > 100 µM | GI50 [2]: 7.76 µM | TGI [2]: 51.6 µM | GI50 [3]: 31.6 µM | TGI [3]: > 100 µM | GI50 [4]: 17.9 µM | TGI [4]: 64.5 µM | GI50 [5]: 14.7 µM | TGI [5]: 48.3 µM | GI50 [6]: 13.3 µM | TGI [6]: 26.8 µM | GI50 [7]: 37.5 µM | TGI [7]: > 100 µM | GI50 [8]: 24.6 µM | TGI [8]: > 100 µM | GI50 [9]: 25.9 µM | TGI [9]: > 100 µM | GI50 [10]: 20.1 µM | TGI [10]: > 100 µM | GI50 [11]: > 100 µM | TGI [11]: > 100 µM | GI50 [12]: 1610 nM | TGI [12]: 3.05 µM | GI50 [13]: 20.4 µM | TGI [13]: 49.6 µM | GI50 [14]: 16.2 µM | TGI [14]: 49.6 µM | GI50 [15]: > 100 µM | TGI [15]: > 100 µM | GI50 [16]: 34.1 µM | TGI [16]: > 100 µM | GI50 [17]: > 100 µM | TGI [17]: > 100 µM | GI50 [18]: > 100 µM | TGI [18]: > 100 µM | GI50 [19]: 19.7 µM | TGI [19]: > 100 µM | GI50 [20]: 19.2 µM | TGI [20]: 69.7 µM | GI50 [21]: 12 µM | TGI [21]: > 100 µM | GI50 [22]: 15.7 µM | TGI [22]: 92.6 µM | GI50 [23]: > 100 µM | TGI [23]: > 100 µM | GI50 [24]: 13.9 µM | TGI [24]: 92 µM | GI50 [25]: 17.7 µM | TGI [25]: 75.1 µM | GI50 [26]: 26.8 µM | TGI [26]: 82 µM | GI50 [27]: 46.8 µM | TGI [27]: > 100 µM | GI50 [28]: 4.08 µM | TGI [28]: > 100 µM | GI50 [29]: 8.01 µM | TGI [29]: 26.1 µM | GI50 [30]: 56.3 µM | TGI [30]: > 100 µM | GI50 [31]: 20 µM | TGI [31]: > 100 µM | GI50 [32]: 18 µM | TGI [32]: 40.8 µM | GI50 [33]: 37.7 µM | TGI [33]: > 100 µM | GI50 [34]: 21.5 µM | TGI [34]: 62.5 µM | GI50 [35]: > 100 µM | TGI [35]: > 100 µM | GI50 [36]: 5.27 µM | TGI [36]: > 100 µM | GI50 [37]: 5.72 µM | TGI [37]: 22.9 µM | GI50 [38]: 17 µM | TGI [38]: 41.3 µM | GI50 [39]: 24.3 µM | TGI [39]: 60 µM | GI50 [40]: 16.3 µM | TGI [40]: 34.1 µM | GI50 [41]: 16.9 µM | TGI [41]: 58.5 µM | GI50 [42]: 22.5 µM | TGI [42]: 68 µM | GI50 [43]: 25.3 µM | TGI [43]: > 100 µM | GI50 [44]: 19.3 µM | TGI [44]: 46.8 µM | GI50 [45]: 70.1 µM | TGI [45]: > 100 µM | GI50 [46]: 37.7 µM | TGI [46]: > 100 µM | GI50 [47]: 1250 nM | TGI [47]: 2540 nM | GI50 [48]: 25.2 µM | TGI [48]: > 100 µM | GI50 [49]: 38.4 µM | TGI [49]: > 100 µM | GI50 [50]: 13.7 µM | TGI [50]: 72.9 µM | GI50 [51]: 16.3 µM | TGI [51]: 55 µM | GI50 [52]: 14.9 µM | TGI [52]: > 100 µM | GI50 [53]: 25.6 µM | TGI [53]: 69.5 µM
